Source: patent US9266904B2, “6-bridged heteroaryldihydropyrimidines for the treatment and prophylaxis of hepatitis B virus infection” (priority 2013, dated 2016)
≈ marks a conversion by molar mass, not a printed value. Read-outs that look alike come from different tables or passages of the source.

Experiments:
[1] = Human microsomal clearance assay; type: in vitro ADME
Summary of the method: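 Liver microsomes (0.5 mg/mL protein) were incubated with 1 μM compound at 37 °C, pH 7.4 phosphate, with an NADPH-regenerating system. Samples at 0-30 min were quenched and measured by LC-MS/MS for parent loss. No-NADPH controls were included.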

[2] = tested on: HBV replication in HepG2.2.15 cells; assay: Anti-HBV activity in vitro in HepG2.2.15 cells (extracellular HBV DNA by qPCR); type: cell-based; settings: Hepatitis B virus, HepG2.2.15, Anti-HBV activity in HepG2.2.15 cells; read-out: EC50
Summary of the method: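 Constitutively HBV-producing HepG2.2.15 cells were seeded overnight at 37 °C, then treated with half-log serial dilutions of compound (0.5% DMSO final) for five days. Supernatant HBV DNA was extracted and quantified by qPCR; EC50 is the concentration inhibiting HBV replication by 50%.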

HepDE19 cells = assay: Cytotoxicity (CCK-8 cell viability) and selectivity index; type: cell-based, human; settings: CC50 value/EC50 value
From the text: (§1) HepG2.2.15 and HepDE19 are stably-transfected cell lines containing the HBV genome. Both cell lines are derived from the hepatoblastoma cell line Hep G2 (American Type Culture Collection, ATCC® HB-8065™) by the published procedures described in references: M A Selles et al. Proc. Natl. Acad. Sci. USA 1987, 84, 1005-1009 and H Guo et al. Journal of Virology 2007, 81, 12472-12484, respectively. Both cell lines were maintained in Dulbecco's modified Eagle's medium (DMEM)-F12 medium supplemented with 10% fetal bovine serum, 100 U/mL penicillin, 100 μg/mL streptomycin, and 0.5 mg/mL of G418.
(§2) In a cell culture model, apparent antiviral activity of a compound can be the result of host cell death after exposure to the compound. To determine whether the anti-HBV effect of a test compound is due to cytotoxicity, HepDE19 cells were seeded into 96-well plates (5×10^3 cells per well) and treated with compounds as described above for EC50 determination. Five days after treatment, cell viability was measured by addition of 20 μL of CCK-8 reagent. Two hours after incubation at 37° C., the absorbance at wavelengths of 450 nm and 630 nm (OD450 and OD630) was recorded by a plate reader. The concentration results in the death of 50% of the host cells (CC50) of each compound was determined (See Table 5).

[3] = as above; type: cell-based, human; settings: human, HepDE19 cells; cytotoxicity, concentration resulting in death of 50% of host cells
From the text: as §1, §2

[4] = Lyophilisation solubility assay (Lysa); type: physicochemical; settings: thermodynamic from solid
Summary of the method: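 DMSO was evaporated from 10 mM stocks, and residues were taken up in 0.05 M phosphate buffer pH 6.5, stirred 1 h, shaken 2 h and left overnight. Filtrates were quantified by UV or HPLC-UV against a four-point calibration, in duplicate. Values are in μg/ml, with a lower-bound value when >80% dissolved.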

[5] = aqueous buffer, 0.05 M phosphate buffer (pH 6.5), reported as bigger than the value if more than 80% of the sample is in solution, read-out: Lysa

SMILES	CLh ([1]; human, 1 μM, pH 7.4) [mL/min/kg]	EC50 [2] [µM]	Selectivity index (CC50/EC50) (HepDE19 cells)	CC50 at 5 days [3] [µM]	solubility thermodynamic ([4]; pH 6.5, aqueous buffer) [µg/mL]	CLh ([1]; human microsomal clearance) [mL/min/kg]	solubility thermodynamic [4, 5] [µg/mL]
COC(=O)C1=C(CN2C3CC(F)(F)C2C[C@@](O)(CC(=O)O)C3)NC(c2nccs2)=N[C@H]1c1ccc(F)cc1Cl (single isomer, unassigned) [Example 116]	2.6	0.0073	>13699	> 100	495 (≈ 846 µM)		
COC(=O)C1=C(CN2C3CC(F)(F)C2C[C@@](O)(CC(=O)O)C3)NC(c2nccs2)=N[C@@H]1c1ccc(F)c(F)c1C (single isomer, unassigned) [Example 118]	3.1	0.005	8960	45	112 (≈ 192 µM)		
COC(=O)C1=C(CN2C3CC(F)(F)C2C[C@@](O)(CC(=O)O)C3)NC(c2nccs2)=N[C@H]1c1cccc(F)c1Cl (single isomer, unassigned) [Example 120]	0	0.0096	9083	87	317 (≈ 542 µM)		
COC(=O)C1=C(CN2C3COCC2CC(O)(CO)C3)NC(c2nccs2)=N[C@H]1c1ccc(F)cc1Cl (stereo partly drawn) [Example 10, (R)-4-(2-Chloro-4-fluoro-phenyl)-6-(7-hydroxy-7-hydroxymethyl-3-oxa-9-aza-bicyclo[3.3.1]non-9-ylmethyl)-2-thiazol-2-yl-1,4-dihydro-pyrimidine-5-carboxylic acid methyl ester]		0.0088	>11364	> 100	435 (≈ 810 µM)		
COC(=O)C1=C(CN2C3COCC2CC(CC(=O)O)C3)NC(c2nccs2)=N[C@H]1c1ccc(F)cc1Br (stereo partly drawn) [Example 28, (R)-4-(2-Bromo-4-fluoro-phenyl)-6-(7-carboxymethyl-3-oxa-9-aza-bicyclo[3.3.1]non-9-ylmethyl)-2-thiazol-2-yl-1,4-dihydro-pyrimidine-5-carboxylic acid methyl ester]	0.6	0.015	>9804	> 100	> 655		
COC(=O)C1=C(CN2C3COCC2c2c(n(C)[nH]c2=O)C3)NC(c2nccs2)=N[C@H]1c1ccc(F)cc1Cl (stereo partly drawn) [Example 33, (R)-4-(2-Chloro-4-fluoro-phenyl)-6-(5-methyl-3-oxo-10-oxa-4,5,12-triaza-tricyclo[6.3.1.0*2,6*]dodec-2(6)-en-12-ylmethyl)-2-thiazol-2-yl-1,4-dihydro-pyrimidine-5-carboxylic acid methyl ester]		0.011	>9091	> 100	100 (≈ 179 µM)		
COC(=O)C1=C(CN2CC3(CO)CC2CO3)NC(c2nccs2)=N[C@H]1c1ccc(F)cc1Cl (stereo partly shown) [Example 39]		0.032	>5848	> 100		7.4	> 610
CCOC(=O)C1=C(CN2C3COCC2C(C(=O)O)C3)NC(c2nccs2)=N[C@H]1c1ccc(F)cc1Br (stereo partly drawn) [Example 52, 8-[[(4R)-4-(2-bromo-4-fluoro-phenyl)-5-ethoxycarbonyl-2-thiazol-2-yl-1,4-dihydropyrimidin-6-yl]methyl]-3-oxa-8-azabicyclo[3.2.1]octane-6-carboxylic acid]	2.7	0.0179	>5587	> 100	> 630		
COC(=O)C1=C(CN2C3COCC2CN(C(N)=O)C3)NC(c2nccs2)=N[C@H]1c1ccc(F)cc1Br [Example 54, Methyl (4R)-4-(2-bromo-4-fluoro-phenyl)-6-[(7-carbamoyl-3-oxa-7,9-diazabicyclo[3.3.1]nonan-9-yl)methyl]-2-thiazol-2-yl-1,4-dihydropyrimidine-5-carboxylate]	6.5	0.0082	7300	60	119 (≈ 205 µM)		
COC(=O)C1=C(CN2[C@@H]3COC[C@H]2C[C@H](CC(=O)O)C3)NC(c2nccs2)=N[C@H]1c1ccc(F)cc1Br [Example 58, 2-[(1S,5R)-9-[[(4R)-4-(2-bromo-4-fluoro-phenyl)-5-methoxycarbonyl-2-thiazol-2-yl-1,4-dihydropyrimidin-6-yl]methyl]-3-oxa-9-azabicyclo[3.3.1]nonan-7-yl]acetic acid]	2.1	0.0114	>8772	> 100	> 701		
COC(=O)C1=C(CN2[C@@H]3COC[C@H]2C[C@H](CC(=O)O)C3)NC(c2nccs2)=N[C@H]1c1cccc(F)c1Cl [Example 59, Exo-2-[(1S,5R)-9-[[(4R)-4-(2-chloro-3-fluoro-phenyl)-5-methoxycarbonyl-2-thiazol-2-yl-1,4-dihydropyrimidin-6-yl]methyl]-3-oxa-9-azabicyclo[3.3.1]nonan-7-yl]acetic acid]	2.1	0.0156	>6410	> 100	> 732		
COC(=O)C1=C(CN2[C@@H]3COC[C@H]2C[C@H](NC(N)=O)C3)NC(c2nccs2)=N[C@H]1c1ccc(F)cc1Cl [Example 62, Methyl (4R)-4-(2-chloro-4-fluoro-phenyl)-2-thiazol-2-yl-6-[[(1S,5R)-7-exo-ureido-3-oxa-9-azabicyclo[3.3.1]nonan-9-yl]methyl]-1,4-dihydropyrimidine-5-carboxylate]	4.6	0.007	6571	46			
COC(=O)C1=C(CN2[C@@H]3COC[C@H]2C[C@H](NS(N)(=O)=O)C3)NC(c2nccs2)=N[C@H]1c1ccc(F)cc1Cl [Example 63, Methyl (4R)-4-(2-chloro-4-fluoro-phenyl)-6-[[(1R,5S)-7-exo-(sulfamoylamino)-3-oxa-9-azabicyclo[3.3.1]nonan-9-yl]methyl]-2-thiazol-2-yl-1,4-dihydropyrimidine-5-carboxylate]	4.1	0.0015	22367	34			
COC(=O)C1=C(CN2[C@@H]3C[C@@H](CC(=O)O)C[C@H]2C(F)(F)C3)NC(c2nccs2)=N[C@H]1c1ccc(F)c(F)c1C [Example 111, 2-[(1R,3R,5S)-8-[[(4S)-4-(3,4-difluoro-2-methyl-phenyl)-5-methoxycarbonyl-2-thiazol-2-yl-1,4-dihydropyrimidin-6-yl]methyl]-6,6-difluoro-8-azabicyclo[3.2.1]octan-3-yl]acetic acid]	4.8	0.0012	65983	79			
CCOC(=O)C1=C(CN2C3COCC2C(F)(F)[C@H](CC(=O)O)C3)NC(c2nccs2)=N[C@H]1c1ccc(F)c(F)c1C (stereo partly drawn) [Example 128, 2-[(7S)-9-[[(4S)-4-(3,4-difluoro-2-methyl-phenyl)-5-ethoxycarbonyl-2-thiazol-2-yl-1,4-dihydropyrimidin-6-yl]methyl]-6,6-difluoro-3-oxa-9-azabicyclo[3.3.1]nonan-7-yl]acetic acid]	3.8	0.0025	14056	35			
COC(=O)C1=C(CN2CC3(CNC(C)=O)CC2CO3)NC(c2nccs2)=N[C@H]1c1ccc(F)cc1Cl (stereo partly drawn) [Example 145, Methyl (4R)-6-[[4-(acetamidomethyl)-5-oxa-2-azabicyclo[2.2.1]heptan-2-yl]methyl]-4-(2-chloro-4-fluoro-phenyl)-2-thiazol-2-yl-1,4-dihydropyrimidine-5-carboxylate]		0.017	>5882	> 100			585 (≈ 1100 µM)
